Test [1] concerns Aβ1-40. The experiment in a line: Measurement of Aβ1-40 in culture medium of 7W WT APP751 CHO cells by ELISA. In kind it is cell-based, Chinese hamster. The following applies: for Aβ1-40 (% of control): CHO cells that overexpress APP751, zero = below the detection limit of the assay; for activity at 5 µM: Cricetulus griseus, Table 1, 5 μM test compound, CHO cells stably transfected with human APP751, culture medium, ELISA, control DMSO, 0 = no detectable amount.

For test [2], the system named is Aβ1-42. The experiment in a line: Measurement of Aβ1-42 in culture medium of 7W WT APP751 CHO cells by ELISA. In kind it is cell-based, Chinese hamster. The following applies: for Aβ1-42 (% of control): CHO cells that overexpress APP751, zero = below the detection limit of the assay; for activity at 5 µM: Cricetulus griseus, Table 1, 5 μM test compound, CHO cells stably transfected with human APP751, culture medium, ELISA, control DMSO, 0 = no detectable amount, read-out: Aβ1-42 (% of control). For orientation: In an ELISA, binding on a coated surface is turned into a signal by an enzyme label.

Data on ten compounds can be found in patent US20100119599A1 (ARCHER PHARMACEUTICALS, INC., priority 2006, published 2010).
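Note: 5 µM test compound but RI-coded compounds at 10 µM for 24 hours.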

As to `COC(=O)C1=CN(C23CC4CC(CC(C4)C2)C3)C=C(C(=O)OC)C1c1cccc([N+](=O)[O-])c1` [ST045329, methyl 1-adamantanyl-5-(methoxycarbonyl)-4-(3-nitrophenyl)-1,4-dihydropyridine-3-carboxylate], the “Aβ1-40 (% of control)” value in test [1] is 82.6 % of control. The “Aβ1-42 (% of control)” value in test [2] is given as 68.52 % of control.
In the same order, the values of `COC(=O)C1=C(C)NC(C)=C(C(=O)OC)C1c1cc(-c2ccc(Cl)cc2Cl)co1` [ST045410, methyl 4-[4-(2,4-dichlorophenyl)(2-furyl)]-5-(methoxycarbonyl)-2,6-dimethyl-1,4-dihydropyridine-3-carboxylate] are 75.13 % of control and 69.44 % of control.
`CC1(C)CC(=O)C2=C(C1)N(c1cc(C(F)(F)F)ccc1Cl)C(N)=C(C#N)C2c1ccc(Br)s1` (centres unmarked) [ST046868, 2-amino-4-(5-bromo(2-thienyl))-1-[2-chloro-5-(trifluoromethyl)phenyl]-7,7-dimethyl-5-oxo-1,4,6,7,8-pentahydroquinoline-3-carbonitrile]: the activity at 5 µM was determined as 29.8% in test [1] and 84% in test [2].
The matching figures for `CC1(C)CC(=O)C2=C(C1)N(Cc1ccccc1)C(N)=C(C#N)C2c1ccc(Cl)cc1` (centres unmarked) [ST047623, 2-amino-4-(4-chlorophenyl)-7,7-dimethyl-5-oxo-1-benzyl-1,4,6,7,8-pentahydroquinoline-3-carbonitrile]: 95.4% and 44.4%.
As for `CC(=O)C1=C(C)NC(SCC(=O)Nc2c(C)cc(Br)cc2Br)=C(C#N)C1c1cc(C)cs1` (centres unmarked) [ST048506, 2-[5-acetyl-3-cyano-6-methyl-4-(4-methyl(2-thienyl))(2-1,4-dihydropyridylthio)]-N-(2,4-dibromo-6-methylphenyl)acetamide], in test [1], the “Aβ1-40 (% of control)” value is recorded as 91.16 % of control. Further, in test [2], the “Aβ1-42 (% of control)” value is 65.58 % of control.
For `N#CC1=C(SCC(=O)Nc2ccc(Br)cc2)NC2=C(C(=O)CCC2)C1c1ccccc1Cl` (centres unmarked) [ST050407, N-(4-bromophenyl)-2-[4-(2-chlorophenyl)-3-cyano-5-oxo(2-1,4,6,7,8-pentahydroquinolylthio)]acetamide], the results for the activity at 5 µM in test [1] and in test [2] were 56.7% and 44.3%, respectively.
For `CC1=C(C(=O)OC(C)(C)C)C(c2ccc(Cl)cc2)C(C#N)=C(SCC(=O)Nc2cccc(C)c2C)N1` (centres unmarked) [ST050424, tert-butyl 6-{[N-(2,3-dimethylphenyl)carbamoyl]methylthio}-4-(4-chlorophenyl)-5-cyano-2-methyl-1,4-dihydropyridine-3-carboxylate], the “Aβ1-40 (% of control)” value in test [1] is 41.21 % of control. Also, the “Aβ1-42 (% of control)” value in test [2] is reported as 52.29 % of control.
As for `CC1=C(C(=O)OC(C)(C)C)C(c2ccc(Cl)cc2)C(C#N)=C(SCC(=O)Nc2cc(C)ccc2C)N1` (centres unmarked) [ST050428, tert-butyl 6-{[N-(2,5-dimethylphenyl)carbamoyl]methylthio}-4-(4-chlorophenyl)-5-cyano-2-methyl-1,4-dihydropyridine-3-carboxylate], in test [1], the “Aβ1-40 (% of control)” value was 95.74 % of control. Also, the “Aβ1-42 (% of control)” value in test [2] is 65.47 % of control.
Turning to `CC1=C(C(=O)Nc2ccccc2)C(c2cccs2)C(C#N)=C(SCC(=O)Nc2ccccc2C)N1` (centres unmarked) [ST050837, 2-[3-cyano-6-methyl-5-(N-phenylcarbamoyl)-4-(2-thienyl)(2-1,4-dihydropyridylthio)]-N-(2-methylphenyl)acetamide], the “Aβ1-40 (% of control)” value in test [1] is reported as 95.44 % of control. Also, in test [2], the “Aβ1-42 (% of control)” value is 41.29 % of control.
In the same order, the values of `CCOc1ccc(NC(=O)CSC2=C(C#N)C(c3cccs3)C(C(=O)Nc3ccccc3C)=C(C)N2)cc1` (centres unmarked) [ST050838, 2-{3-cyano-6-methyl-5-[N-(2-methylphenyl)carbamoyl]-4-(2-thienyl)(2-1,4-dihydropyridylthio)}-N-(4-ethoxyphenyl)acetamide] are 70.76 % of control and 56.66 % of control.
